Assay results published in patent publication EP2027772A1, “Skin-friendly insect repellent” (Beiersdorf AG, priority 2007, dated 2009).
Where two headings read alike, the source gives them in different places.

How the values were obtained:
[1] = Octanol/water partition coefficient (log P), shake-flask with UV spectroscopy; alternatively calculated by Hansch and Leo

## CCCCCC(O)CO (stereo not drawn) [1,2 Heptanediol]
physchem; n-octanol/water
  logP: 1.5

## CCCCC(O)CO (stereo not drawn) [1,2 Hexandiol]
physchem; n-octanol/water
  logP: 1

## CCCCCCCC(O)CO (stereo not drawn) [1,2 Nonanediol]
physchem; n-octanol/water
  logP: 2.5

## CCCCCCC(O)CO (stereo not drawn) [1,2 Octandiol]
physchem; n-octanol/water
  logP: 1.3

## CCCC(O)CO (stereo not drawn) [1,2 Pentandiol]
physchem; n-octanol/water
  logP: -0.3

## CC(O)CO (stereo not drawn) [1,2 Propandiol]
[1]; n-Octanol/Wasser
  Log P-Wert: -1,3

## CCCCCC(O)C(O)CO (stereo not drawn) [1,2,3 Octanetriol]
physchem; n-octanol/water
  logP: 0.15

## CCCCCCCCC(O)CO (stereo not drawn) [1,2-Decandiol]
physchem; n-octanol/water
  logP: 2.4

## CC(O)CCO (stereo not drawn) [1,3 Butandiol]
physchem
  logP: -0.7

## COCC(O)COC [1,3-Dimethoxy-2-propanol]
physchem; n-octanol/water
  logP: -0.5

## OCCCCCO [1,5 Pentandiol]
physchem
  logP: -0.6

## OCCCCCCO [1,6 Hexandiol]
physchem
  logP: -0.1

## OCC(CO)(CO)CO [2,2 Bishydroxymethyl 1,3 Propanediol]
physchem
  logP: -2.4

## CCC(CO)(CO)CO [2-Ethyl-2-Hydroxymethyl 1,3 Propandiol]
physchem
  logP: -0.8

## CC(CO)CO [2-Methyl-1,3-Propanediol]
physchem; n-octanol/water
  logP: -0.7

## CC(O)CC(C)(C)O (stereo not drawn) [2-Methyl-2,4 Pentandiol]
physchem; n-octanol/water
  logP: 0

## CCC(CO)(CO)COCC(CC)(CO)CO [3,3,7,7 Tetrahydroxymethyl 5 oxanonan]
physchem; n-octanol/water
  logP: -0.3

## CC(C)(O)CCO [3-Methyl 1,3 Butanediol]
physchem; n-octanol/water
  logP: -0.3

## CCCCC(CC)COCC(O)CO (stereo not drawn) [3-[(2-Ethylhexyl)oxy]-1,2 propandiol]
physchem
  logP: 2.1

## OCCCCO [Butane-1,4diol, Tetramethylene Glucol]
[1]; n-Octanol/Wasser
  Log P-Wert: -1

## CC(C)(CO)CO [Neopentanediol, Neopentyleme Glyol]
[1]
  Log P-Wert: -0,3
